The text below walks through data of paper PMC8196580, “Identification of Kaurane-Type Diterpenes as Inhibitors of Leishmania Pteridine Reductase I” (Molecules, 2021).

Structures are written as SMILES.

For one assay, the system named is Plasmodium falciparum. On the set-up: method as in earlier work. Particulars: in vitro, ref 27 (Nogueira et al.); cited from earlier work.
A further assay has as its system Leishmania donovani. Details: method as in earlier work. Particulars: in vitro, ref 27 (Nogueira et al.); cited from earlier work.
A further assay relates to L6 cells. On the set-up: method as in earlier work. Particulars: in comparison with L6 cells; ref 27 (Nogueira et al.); cited from earlier work.
For a further assay, the target named is T1, LmPTR1 (Leishmania major, UniProt Q01782).
T1 construct: made in house
T1 sequence (Q01782 1-288): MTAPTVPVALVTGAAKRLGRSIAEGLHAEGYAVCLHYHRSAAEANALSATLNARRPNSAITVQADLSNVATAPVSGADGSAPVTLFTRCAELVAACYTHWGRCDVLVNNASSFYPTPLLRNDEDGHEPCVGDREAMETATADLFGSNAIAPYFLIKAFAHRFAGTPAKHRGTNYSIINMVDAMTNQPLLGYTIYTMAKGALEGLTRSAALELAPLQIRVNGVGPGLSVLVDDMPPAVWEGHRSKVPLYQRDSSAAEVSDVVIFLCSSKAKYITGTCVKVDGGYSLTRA
In words: LmPTR1 enzyme inhibition assay (spectrophotometric, NADPH oxidation at 340 nm). Format: biochemical. Particulars: for Ki: read-out: Ki^app; for IC50: recombinant LmPTR1, DHB 20 µM, NADPH 250 µM, pH 6.0, 30 °C, 0.1–128 µM, read-out: IC50. The method, then: The selected synthetic diterpene esters 135, 301, 302, 301a, and 302a were tested in vitro to experimentally determine their abilities to inhibit the enzymatic activity of LmPTR1 as an extension of the results provided by the in silico screening. […] The IC50 was then calculated for the tested diterpenes, and these values were used to calculate the apparent inhibitory constant (Ki^app) (Table 3) using the Cheng–Prusoff equation, assuming reversible competitive inhibition and 1:1 stoichiometry. PMA, a known PTR1 inhibitor, was used as a positive control. […] Therefore, a reasonable inference based on this small set of compounds is that the presence of a p-hydroxyl group at the phenylpropanoid moiety might favor inhibitory activity, whereas a 9β-hydroxyl group at the diterpene moiety has a negative influence on LmPTR1 inhibition.
Recombinant LmPTR1 enzyme was obtained, purified, and kinetically characterized, as reported previously. The in vitro assessment of selected diterpenes (i.e., 135, 301, 302, 301a, and 302a) for LmPTR1 inhibitory activity was performed through the spectrophotometric monitoring of the enzymatic activity under balanced conditions: LmPTR1 (30 µg), 7,8-dihydro-L-biopterin (DHB, 20 µM), sodium citrate buffer (20 mM, pH 6.0), 30 °C, and a final assay volume of 600 µL. Each reaction was started by the addition of 250 µM NADPH. Absorbance was monitored at 340 nm (i.e., oxidation of NADPH to NADP+) for 240 s, and the resulting profile was used to measure the initial reaction rate (IRR) through the respective slope by linear regression. All recordings were performed in triplicate. PMA was used as the positive control. The resulting IRR values were used to calculate the % inhibition, as 100 − (Ri/Rc × 100), where Ri is the IRR in the presence of the inhibitor and Rc is the IRR in the absence of inhibitors (1% DMSO v/v final concentration). The % inhibition for at least five concentrations (range: 0.1–128 µM) for each test compound (diterpenes and PMA) were calculated, and concentration-response curves (% inhibition vs. Log[inhibitor]) were obtained by non-linear regression to determine the IC50 using GraphPad Prism 5.0 (GraphPad, San Diego, CA, USA). Finally, Ki^app values were calculated using the Cheng–Prusoff equation for competitive inhibition, assuming a 1:1 stoichiometry and that the inhibitor-binding reactions are reversible: Ki^app = IC50/(1 + [S]/Km), where [S] is the substrate (DHB) concentration and Km is the Michaelis constant. The substrate Km was calculated during the kinetic characterization of purified, recombinant LmPTR1.

By IC50 is commonly meant the concentration at which inhibition is half-maximal. For the compound `C=C1C[C@@]23CC[C@@H]4[C@](C)(CO)[C@H](O)CC[C@@]4(C)[C@@H]2CC[C@@H]1C3` (single isomer, unassigned; ent-3) [ent-3-α-hydroxy-kaur-16-en-18-ol], the IC50 in the assay on Plasmodium falciparum is 3.5 µM; in the assay with Leishmania donovani, 2.5 µM. Moreover, the “Selectivity index, SI” value in the assay on L6 cells is more than 10.

In the case of `C=C1C[C@@]23CCC4[C@](C)(C(=O)O)[C@H](OC(=O)/C=C/c5ccccc5)CC[C@@]4(C)[C@]2(O)CC[C@@H]1C3` (stereo partly drawn) [compound 301, 3α-Cinnamoyloxy-9β-hydroxy-ent-kaur-16-en-19-oic Acid], on LmPTR1, the Ki is 4.64 µM and the IC50 turned out to be 21.2 µM.

Regarding `C=C1C[C@@]23CCC4[C@](C)(C(=O)O)[C@H](OC(=O)/C=C/c5ccccc5)CC[C@@]4(C)[C@@H]2CC[C@@H]1C3` (stereo partly drawn) [compound 302, 3α-cinnamoyloxy-ent-kaur-16-en-19-oic acid], on LmPTR1, the Ki was determined as 2.1 µM and the IC50 came out at 9.6 µM.
